Test results: a melting point compilation (Tetko et al.; mined from patent text by program, amines drawn as free bases though some values may be those of a salt)

melting point [°C]	SMILES
83 to 86	COC(=O)C(C)c1ccc(-c2ccccc2[N+](=O)[O-])cc1 (stereo unspecified)
196 to 198	CS(=O)(=O)OCCc1c2ccccc2n2c1[nH]c(=O)c1ccccc12
181 to 182	O=C1N(Cc2ncccc2C(F)F)c2ccccc2C12COc1cc3c(cc12)OCCO3 (stereo unspecified)
205 to 207	O=C(O)c1ccc(-c2nn(Cc3ccccc3)c3ccccc23)cc1
164 to 165	CSc1nc(N)nc(SC)c1-c1ccc(Cl)cc1Cl
249 to 253	CC(C)(O)c1nc(-c2ccc(-c3cnc4[nH]c(=O)n(CC5CCOCC5)c4n3)cc2)n[nH]1
59 to 61	Cc1ccc(C(=O)CCc2ccc(N)cc2)cc1
153 to 155	N#CC=C1CCc2cnc3c(c21)CCO3
230 to 233	N#CC1=C(C#N)Sc2nc3cc([N+](=O)[O-])c([N+](=O)[O-])cc3nc2S1
215 to 217	Cc1nc(N)ncc1-c1ccncc1
123 to 125	Cc1nn(-c2c(Cl)cc(C(F)(F)F)cc2Cl)c(N)c1SC(C)(F)F
68 to 70	CCOC(=O)c1nc(-c2cccc3ccccc23)no1
54	CCC1CC(=O)N(Cc2cccc(C(=O)NC3CCCC3)c2)N=C1c1ccc(OC)c(OC)c1 (stereo unspecified)
131 to 132	Cc1ccc(S(=O)(=O)N2CCC(Sc3ccc(F)cc3)CC2)cc1
107 to 108	Cc1cc(C)c2c(c1C)OC(=O)C2c1ccc(C(C)C)cc1 (stereo unspecified)
131	Cc1c(NC(=O)c2ccc(OCCC(C)C)cc2F)ccc2cc(CN3CCCC3)cnc12
65 to 69	COc1cc(C(=O)O)cc(OC)c1N(C)C
131 to 135	CC1CC2=CC(=O)CCC2C2CCC3(C)C(C(F)F)CCC3C12 (stereo unspecified)
276 to 277	O=C(O)c1ccccc1S(=O)(=O)c1cc(Cl)ccc1C(=O)O
208 to 211	NC(=O)C1C(CSSCC2C(C(N)=O)N(Cc3ccccc3)C(=O)N2Cc2ccccc2)N(Cc2ccccc2)C(=O)N1Cc1ccccc1 (stereo unspecified)
168 to 169	N=C(NNC(=O)c1ccccc1O)C(Cl)(Cl)Cl
112 to 115	COc1ccc2c3c(c(=O)oc2c1)CN(Cc1cccc(Cl)c1)CC3
95 to 113	CCOC(=O)c1c(N2CCN(C(=O)c3cccs3)CC2)c2sccc2n(Cc2cccc(F)c2)c1=O
104 to 105	COC(=O)C(C)c1ccc2oc(-c3c(F)cccc3Cl)nc2c1 (stereo unspecified)

melting point [°C]	SMILES
60	COc1ccc(CN(CCN(C)CCCCCCNC(=O)NCCSCc2csc(NC(=N)N)n2)c2ccccn2)cc1
120 to 122	CC(=O)OCCc1ccc2sc(S(N)(=O)=O)cc2c1
219 to 223	CCc1cc(Oc2cccnc2)c(S(C)(=O)=O)cc1C(=O)N=C(N)N
245 to 248	CNS(=O)(=O)c1cc(C(=O)O)cc(N2CCCC2)c1Oc1ccccc1
112	O=c1n(CCCN2CCC(c3c[nH]c4ccccc34)CC2)nc2ccccn12
90 to 91	CCC#CCOc1cc2c(cc1C=O)C(C)(C)CCC2(C)C
58 to 60	CS(=O)(=O)OCCc1ccc(NC(=O)OCc2ccccc2)cc1CCOS(C)(=O)=O
51 to 52	C#CCc1c(F)c(F)c(CO)c(F)c1F
76 to 77	O=Cc1c(OCCCCCCC(=O)N(Cc2ccccc2)Cc2ccccc2)cc(Cl)cc1[N+](=O)[O-]
144 to 145	CCOC(=O)c1cnc(-c2ccc(Cl)cc2)s1
137 to 139	O=C(NCCCn1cncn1)Nc1ccc(Cl)cc1
105 to 107	CC(=O)c1cccc(Oc2ncccc2C(=O)NCC2CCC(C(C)(C)O)CC2)c1 (stereo unspecified)
49 to 50	COC(=O)c1cc(I)cnc1Cl
148 to 149	CC(C)Cn1c(=O)n(C)c(=O)c2c(Sc3ccccn3)c(Cc3cccc4ccccc34)sc21
85 to 87	OCc1ccc2ccccc2c1OCc1ccccc1
160 to 161	CCC(COCc1ccc(C#N)cc1)n1cnc2c(N)nc3ccccc3c21 (stereo unspecified)
208 to 210	Cc1c(-c2cc(Nc3cc4n(n3)CCN(C)C4)c(=O)n(COP(=O)(OCCC#N)OCCC#N)n2)cccc1N1Cc2cc(C(C)(C)C)sc2C1=O
141 to 142	NC(=O)c1ccc(OCCNCC(O)c2ccccc2)cc1O (stereo unspecified)
192 to 193	CC(C)Cn1c(=O)n(C)c(=O)c2c(N)ncnc21
296 to 300	O=C(Nc1ccc(Sc2c(O)c3c(Cl)cc(Cl)cc3[nH]c2=O)cc1)c1ccco1
123 to 125	CC(=O)C(=O)Oc1c(C)cc(Nc2ccn(-c3ccccc3)n2)cc1C
93 to 97	CCCCn1nnnc1-c1c(O)ccc(-c2cccc(C(=O)OC)c2)c1O
135	CC(=O)c1ccc(F)c(S(N)(=O)=O)c1
215 to 216	Cn1c(=O)nc(-c2ccccc2)c2c3c(sc21)CCCC3

melting point [°C]	SMILES
101 to 102	CCc1cccc(C)c1N(CN1CCOC1=O)C(=O)CCl
129 to 130	CCCCN(C(=S)NC)c1ccc(Cl)nc1
89 to 92	COc1ccc(C2OC(O[Si](C)(C)C)(C(F)(F)F)C(C)(C)N2C(=O)COc2ccccc2)cc1 (stereo unspecified)
175 to 176	Cc1c(NC(=O)CC(C)(C)C)cc2c(c1C)OC(C)(C)C2=O
75 to 76	CCn1nc(OCCCc2ccc(OC(C)C)cc2OCc2ccc(C(F)(F)F)cc2)cc1CCC(=O)O
260 to 261	C=CCOc1ccc(C(=O)Oc2ccc(C(=O)O)cc2)cc1C12CC3CC(CC(C3)C1)C2
227 to 232	c1ccc2c(c1)Sc1ccccc1N2c1ccc(-n2ccnc2-c2nccn2-c2ccc(N3c4ccccc4Sc4ccccc43)cc2)cc1
37 to 38	Cc1ccc(S(=O)(=O)O[C@H](C)COc2c(N)ccc(F)c2F)cc1
180 to 190	O=c1[nH]c2ccc(C(F)(F)F)cc2c(-c2cc(Cl)ccc2O)c1Sc1ccc(O)cc1
129	O=C(CCCCCN1CCN(c2cccc(C(F)(F)F)c2)CC1)N1Cc2ccc(C3=NCCO3)cc2C1
43 to 45	CCOC(=O)c1ccc(Br)c(OCC)c1N(CC)S(C)(=O)=O
124	COc1cc(O)c(C(=O)C=Cc2sccc2C)c(OC)c1
166 to 167	O=C(NCCO)c1cccc(-c2cccc3nn(Cc4ccccc4)cc23)c1
163	CN1CC(N2CCc3ccccc3C2)ON=C1CC(c1ccccc1)c1ccccc1 (stereo unspecified)
109 to 111	C=C(C)CCOc1c(-c2ccc(S(C)(=O)=O)cc2)cnn(-c2ccc(F)cc2)c1=O
219 to 221	CC(C)(F)C1COCc2nc3c(N)nc4cc(O)ccc4c3n21 (stereo unspecified)
125 to 136	CCCn1c(=O)c2c(nc(/C=C/c3ccc(Cl)c(Cl)c3)n2C)n(CCC)c1=O
155 to 156	CN1CCC2(CC1)NCc1cc(C(C)(C)C)cc(I)c1O2
165 to 166	Nc1cccc2cc(-c3ccccn3)[nH]c12
239	O=C(NCc1ccc(Cl)cc1)c1cn2c3c(cc(CN4CCOCC4)cc3c1=O)OC(c1ccccc1O)C2 (stereo unspecified)
93 to 94	COc1cc(O)cc(-c2cc3ccc(O)cc3o2)c1CC=C(C)C
153 to 154	CC(C)CN1C(=O)C(CC(=O)O)OC(C)(c2ccccc2Cl)c2cc(Cl)ccc21 (stereo unspecified)
134	O=S1(=O)CCCSC(S)=N1
127 to 129	COC(=O)c1nc(-c2ccc([Si](C)(C)C)cc2F)c(F)c(N)c1OC

melting point [°C]	SMILES
234 to 235	Cc1cc(C)c2nc(C(=O)O)cc(-c3ccccc3Cl)c2c1
123 to 125	Cc1ccc(S(=O)(=O)NC[C@H]2CN3C(=O)C[C@H]3O2)cc1 (racemic)
110 to 111	c1ccc(-c2nc(COc3ccc(CCCn4ccnc4)cc3)cs2)cc1
170 to 172	CCN1N=C(c2ccc3c(c2)CCC(=O)N3C)C(C)CC1=O (stereo unspecified)
178 to 181	CCCSc1ncc(CC(N=C(c2ccccc2)c2ccccc2)C(=O)OCC)n1Cc1ccccc1Cl (stereo unspecified)
104 to 106	ICCCCCOc1ccc(C2=C(c3ccccc3)CCCc3ccccc32)cc1
69 to 70	N#CC(NCCCO)c1ccc(F)cc1 (stereo unspecified)
207 to 210	CN(Cc1ccc(NC(=O)C2=Cc3cc(-c4ccc(OCc5ccc(Cl)s5)cc4)ccc3S(=O)(=O)CC2)cc1)C1CCOCC1
86.2 to 87	COCCOC1(S(C)=O)C=CC=C(C(=O)c2cnoc2C2CC2)C1Br (stereo unspecified)
139 to 141	CCCCCS(=O)(=O)NC(=O)CCc1cc(OCc2ccccc2)nn1Cc1ccc(Cl)cc1Cl
88	Cc1cc(C#N)nc(Oc2cc(C(F)(F)F)nn2C)c1
230 to 232	COc1cc(N2CCN([C@H]3CC[C@H](c4cn(C)c5ccc(C#N)cc54)CC3)CC2)c2nccc(C)c2c1
254 to 257	CCc1c([N+](=O)[O-])c(C(N)=O)nn1C1CN(C(c2ccccc2)c2ccccc2)C1
135 to 137	CCOC(=O)c1ccc(NC=O)c(C(=O)CCNC(=O)OC(C)(C)C)c1
118 to 121	CC(CCc1ccc(N(C)C)cc1)NCC(O)c1sccc1C(N)=O (stereo unspecified)
170 to 172	Fc1ccc(CNc2nc(OCC(F)(F)F)nc(-c3ccccc3)n2)cc1
40	c1ccc(OCCSCc2nnc(-c3ccc(OCCN4CCCCCC4)cc3)o2)cc1
135 to 137	COC(=O)Cc1ccc(-c2ccc(OCCN3CCOCC3)cc2)cn1
235 to 237	COc1ccc(C(=O)/C=C/c2ncn(C(c3ccccc3)(c3ccccc3)c3ccccc3)c2C)c2ccccc12
111 to 113	CCOC(=O)c1cnn2c1nc(N1CCN(C)CC1)c1cnc3c(cnn3CC)c12
62 to 64	COc1ccc(-c2cc(CO)c(C)o2)cc1

SMILES	melting point [°C]
CNC(=N[N+](=O)[O-])N(Cc1cnc(Cl)s1)C(=O)N1CCOCC1	130 to 131
Cc1cc(Cl)cc(C(=O)NC2(C)CS(=O)(=O)C2)c1NC(=O)c1cc(C(F)(F)F)nn1-c1ncccc1Cl	168 to 171
Cc1ccnc2c1N=C(Cl)c1cccnc1N2C1CC1	196 to 198
